Assay results reported in US20070004692A1, “Preparations and therapy of intrathecal inflammatory disease” (priority 2005, published 2007).
In brackets after ≈: the same amount, converted by molar mass. Marks after values point to notes of the source that are not given here.

Experiments:
[1] = Physical stability of aqueous corticosteroid solutions (ethanol stock added to saline or x-ray contrast agent)
physchem = conditions: water
[2] = Solubility in water at room temperature
[3] = tested on: focal cerebral ischemia (middle cerebral artery occlusion); test: Focal cerebral ischemia, intraluminal suture occlusion of the middle cerebral artery (MCAO); relative infarction volume by TTC staining; format: in vivo; conditions: for Relative infarction volume expressed as percent of the total brain volume of the right hemisphere, mean: 0.012 mg/kg intrathecal single dose (example 3), control 18.08, n 15
[4] = Blood glucose with glucose oxidase reagent strips in the MCAO animals of Example 5; conditions: intrathecal 0.012 mg/kg; venous blood preoperatively, prior to, 2 h and 24 h after administration; versus saline control (FIG. 1)
[5] = Isovist 300, time after mixing 0

Row | Physical stability (appearance) ([1]; Saline, 2 h after mixing) | Physical stability (appearance) ([1]; Ultravist 300, 2 h after mixing) | Physical stability (appearance) ([1]; Ultravist 300, 48 h after mixing) | Physical stability (appearance) ([1]; Ultravist 300, time after mixing 0) | solubility (physchem) | Compound | Physical stability (appearance) ([1]; Isovist 300, 2 h after mixing) | Physical stability (appearance) ([1]; Isovist 300, 48 h after mixing) | Physical stability (appearance) [1, 5] | Physical stability (appearance) ([1]; Saline, time after mixing 0) | solubility [2] | Relative infarction volume expressed as percent of the total brain volume of the right hemisphere, mean ([3]; drug administration 30 Min after MCAO) | Relative infarction volume expressed as percent of the total brain volume of the right hemisphere, mean ([3]; drug administration 1 h after MCAO) | Relative infarction volume expressed as percent of the total brain volume of the right hemisphere, mean ([3]; drug administration 2 h after MCAO) | Relative infarction volume expressed as percent of the total brain volume of the right hemisphere, mean ([3]; drug administration 4 h after MCAO) | reduction in infarction size compared to controls ([3]; 0.012 mg/kg intrathecally, preparation of example 2, 30 minutes after MCA occlusion) | infarction volume (percent of the total brain volume of the right hemisphere) ([3]; 0.012 mg/kg intrathecally, preparation of example 2, 30 minutes after MCA occlusion, sacrificed 24 h after MCAO, controls 20.0±8.0%, p=0.02) | effect on blood glucose [4] | Physical stability (appearance) ([1]; Ultravist 370, 2 h after mixing) | Physical stability (appearance) ([1]; Ultravist 370, 48 h after mixing) | Physical stability (appearance) ([1]; Ultravist 370, time after mixing 0)
1 | clear | clear | clear | clear | ~85 µg/mL (≈ 217 µM) | C[C@@H]1C[C@H]2[C@@H]3CCC4=CC(=O)C=C[C@]4(C)[C@@]3(F)[C@@H](O)C[C@]2(C)[C@@]1(O)C(=O)CO [Dexamethasone, dexamethasone] | clear | clear | clear | clear |  |  |  |  |  |  |  |  |  |  | 
2 |  |  |  |  |  | CC1(C)O[C@@H]2C[C@H]3[C@@H]4CCC5=CC(=O)C=C[C@]5(C)[C@@]4(F)[C@@H](O)C[C@]3(C)[C@]2(C(=O)CO)O1 [Triamcinolone acetonide] | clear | fine particles | clear | clear (?) | ~20 µg/mL (≈ 46 µM) | 12.86* percent | 9.68** percent | 10.57* percent | 9.05** percent | 33% | 13.4±6.5% | does not cause any additional effect | clear | clear | clear
